Laboratory results from PMC12703741, “Light-Activated Metal-Dependent Protein Degradation: A Heterobifunctional Ruthenium(II) Photosensitizer Targeting New Delhi Metallo-β-lactamase 1” (Journal of the American Chemical Society, 2025).
Like-named read-outs stand apart in the source and are kept apart here.

Assays:
E. coli NDM-1 [1] = tested on: E. coli NDM-1
Experimental: based screening experiments were performed in biological triplicate, each replicate starting
from a new single colony inoculation. Statistical significance was determined using two-way
ANOVA followed by Sidak’s multiple comparison test, with a single pooled variance.
Concentration (MIC) assay
20% glycerol stocks of E. coli MG1655 pSU18 NDM-1 (E. coli NDM-1) and E. coli MG1655
pSU18 empty (E. coli empty) stored at -80 °C were used to streak nutrient agar plates. After
The MHBII culture growing both E. coli strains contained chloramphenicol
as an antibiotic resistance marker (2 µg/mL, equivalent to ¼ MICE. coli for chloramphenicol =
8 µg/mL). The resulting suspensions were each diluted 100 x (15 µL in 1.5 mL) in MHBII with
chloramphenicol (2 µg/mL), and the resultant suspensions were incubated to OD600 = 0.6-1.2
To generate the two-dimensional drug interaction matrix, four 96-well source plates were
prepared. In Source Plates A1-3, the three analytes were subjected to a two-fold serial dilution
across the rows (A to G), maintaining constant concentrations within each row and achieving
a vertical concentration gradient. In parallel, Source Plate B was prepared by diluting
meropenem in a two-fold series across the Columns (9 to 2), generating a horizontal
concentration gradient across the plate. Equal volumes (1 µL) from one of the source plates A
and source plate B were transferred into a 96-well assay plate to establish the checkerboard
layout with a 50X dilution into MHBII (50 μL total volume).
The prepared bacterial cells were diluted to OD600 = 0.01. Each prepared checkerboard plate
was then inoculated with 50 μL per well of bacterial culture in MHBII with ½ MIC of
chloramphenicol (100 μL total volume per well , final OD600 = 0.005). Control wells were
included to account for drug-free growth, sterility, and single-agent gradient exposures. Dark
For the light condition, the
OD600 was measured on a BMG Labtech CLARIOstar plate reader. The MIC is the first value
at which no growth is seen. All E. coli NDM-1 data were averaged from 3 biological replicates,

E. coli empty [2] = conditions: dark and light samples equivalent
E. coli NDM-1 [3] = conditions: 320 μM, 1 h
Experimental: (§1) In parallel, a control set was incubated without compounds for 50 min, followed by incubation with 75 μM meropenem trihydrate for 10 min. Cells were then pelleted, washed, resuspended in water, lysed, and clarified before LC-MS analysis.
(§2) 1.12 LC-MS accumulation assay
(§3) 1.12.1 Bacterial Strains and Growth Conditions:
(§4) Accumulation assay was performed two E. coli K-12 MG1655 strains transfected with pSU18 vector containing NDM-1 expression or an empty vector control. Cell growth was performed in Luria-Bertani (LB) broth (NaCl 10g/L, K2HPO4 6.3 g/L, KH2PO4 1.8 g/L, sodium citrate […]
(§5) 1.12.2 Preparation of Accumulation Assay Samples for LC-MS Analysis:
(§6) Assay was adapted from the work of Geddes et al. and Widya et al.9–11 E. coli MG1655 pSU18 NDM-1 and pSU18 Empty were grown from single colonies at 37 °C with aeration, while shaking at 180 rpm for 18 hours. The overnight suspensions were subcultured (1:100) in fresh LB and incubated to yield an OD600 of 0.55-0.60. The were harvested and pelleted at 3500 × g for 15 minutes at 4 °C. The pellets were washed with Meuller -Hinton II (MHII) broth and pelleted again under the same conditions. The pellets were resuspended in a n adjusted volume of fresh MHII to achieve an OD 600 ≈ 10.0. Shielded from ambient light, cells were incubated with 320 μM of metal complex for 1 hour while shaking at 180 rpm. Separately, another set of cells was incubated under identical conditions without any added metal complex. Cells […]
(§7) incubated with metal complex were maintained incubating under the same conditions for an additional 10 minutes, while the second set of cells was incubated with 75 μM of meropenem trihydrate for 10 minutes. After treatment, 10 μL of each cell suspension was taken and dilution 1:10 PBSA for OD600 viability analysis. A 150 μL aliquot of each cell suspension was layered onto 150 μL of cold silicone oil mixture (1:9, v/v AR20:High temperature silicone oil) and centrifuged at 3500 × g for 1 hour at 4 °C. The aqu eous and oil supernatant were carefully aspirated to isolate the cell pellets, which were resuspended in 50 μL of water and transferred to a fresh microplate. For lysis, a 1:1 (v/v) mixture of acetonitrile and methanol was added to each sample, and the sam ples were freeze thawed at -80 °C for approximately 18 hours.
(§8) Thawed samples were clarified by two rounds of centrifugation at 3500 × g for 1 hour at 4 °C, […]
(§9) External calibration curves were prepared by mixing compound at increasing concentration with extracted cell lysate (prepared in parallel to analyte containing samples) in concentrations […]
(§10) nM were also prepared to assess quantitative accuracy. Samples were submitted to LCMS analysis as biological triplicate using a single calibration curve. […]
(§11) was spiked into each calibration and analyte sampl e as an internal standard.

E. coli empty [4] = conditions: 320 μM, 1 h
Experimental: as §1, §2, §3, §4, §5, §6, §7, §8, §9, §10, §11

F[P-](F)(F)(F)(F)F.F[P-](F)(F)(F)(F)F.[Ru+2].c1ccc(-c2ccccn2)nc1.c1ccc(-c2ccccn2)nc1.c1ccc(-n2cnc3c4cccnc4c4ncccc4c32)cc1 [Ru2, [Ru(2,2'-bipyridine)2(1-phenyl-imidazo[4,5,f][1,10]phenanthroline)](PF6)2]
MIC (E. coli NDM-1 [1]; E. coli NDM-1, dark and light samples equivalent): >160 µM
Fold change in Meropenem MIC (E. coli NDM-1 [1]; compound 5 μM, dark): 0 fold
Fold change in Meropenem MIC (E. coli NDM-1 [1]; compound 5 μM, light 450 nm, 60 J cm^-2): 0 fold
Fold change in Meropenem MIC (E. coli NDM-1 [1]; compound 10 μM, dark): 0 fold
Fold change in Meropenem MIC (E. coli NDM-1 [1]; compound 10 μM, light 450 nm, 60 J cm^-2): 0 fold
Fold change in Meropenem MIC (E. coli NDM-1 [1]; compound 20 μM, dark): 0 fold
Fold change in Meropenem MIC (E. coli NDM-1 [1]; compound 20 μM, light 450 nm, 60 J cm^-2): 0 fold
Fold change in Meropenem MIC (E. coli NDM-1 [1]; compound 40 μM, dark): 0 fold
Fold change in Meropenem MIC (E. coli NDM-1 [1]; compound 40 μM, light 450 nm, 60 J cm^-2): 0 fold
Fold change in Meropenem MIC (E. coli NDM-1 [1]; compound 80 μM, dark): 0 fold
Fold change in Meropenem MIC (E. coli NDM-1 [1]; compound 80 μM, light 450 nm, 60 J cm^-2): 0 fold
MIC (E. coli empty [2]): >160 µM
Accumulation (E. coli NDM-1 [3]): 494 nM/OD600
Accumulation (E. coli empty [4]): 405 nM/OD600
LD50 (HeLa; 24 h): > 50 µM
LD50 (HeLa; 48 h): > 50 µM
LD50 (HEK293T; 24 h): > 50 µM
LD50 (HEK293T; 48 h): > 50 µM
